Patent publication US20240000741A1, “ALL-TRANS RETINOIC ACID ENHANCES RADIOTHERAPY AND OVERCOMES IMMUNE SUPPRESSION FOR CANCER THERAPY” (The University of Chicago, priority 2022, published 2024)

Assays:
Type in all cases: in vivo, mouse
[1] = system: non-irradiated MC38 tumors; assay: MC38 two-tumor model, growth of non-irradiated tumors (abscopal effect); details: RA and IR treatment of primary tumor compared to any single treatment
Description: (§1) 1×10^6 MC38, B16/F1, Renca or CT26 cells were subcutaneously implanted into flanks of mice. Tumors were irradiated using a Phillips IR250 orthovoltage X-ray generator (Phillips, Amsterdam, the Netherlands) operating at 250 kV 15 mA. Subcutaneous local tumors were irradiated by shielding bodies with a cylindrical lead cover with only flank tumors exposed for radiation. ATRA (400 μg/mice/day) was administered by oral gavage for 10 days. For the two-tumor model, 1×10^6 and 0.7×10^6 MC38 cells were subcutaneously implanted into the right and left flank of mice respectively. For the tumor re-challenge assay, both the cured mice and the naive mice were re-challenged with 5×10^6 MC38 or 1×10^6 LLC cells respectively. Tumors were measured along two diameters (length and width) and depth twice weekly and volumes were calculated as length×width×depth/2. For CD8 and CD4 T cell depletion experiments, 200 μg antibodies were injected i.p. on day 0, 2, 5 and 8 after radiation. Anti-CD11b antibody was injected i.p. every two days starting 1 day before radiation. Anti-PD-L1 antibody was administered i.p. on day 0, 3, and 7 after radiation at 200 μg/mouse. Anti-IFN-γ was administered i.p. at 500 μg/mouse every 7 days. Anti-NK1.1 antibody was administered via i.p. at 25 μg/mouse every 3 days for 3 doses. Anti-GM-CSF antibody was given by i.p. injection at 250 μg/mouse every 2 days. […]

[2] = system: CD11b+CD11c+ cells; assay: Quantitative real-time PCR of cells sorted from tumors
Excerpt: Total RNA from tumor and CD11c+ cells isolated from tumors with a kit sold under the tradename EASYSEP® Mouse CD11c positive selection kit II (STEMCELL Technologies, Vancouver, Canada) was extracted with a kit sold under the tradename QUICK-RNA® Miniprep Plus kit (R1058, Zymo Research, Irvine, California, United States of America). cDNA was synthesized with a High Capacity cDNA Reverse Transcription kit (4368814, Applied Biosystems, Waltham, Massachusetts, United States of America). Real-time PCR was performed with a kit containing fluorescent chemicals sold under the tradename SYBR™ (Molecular Probes, Sunnyvale, California, United States of America), i.e., the SYBR™ Green PCR Master Mix (4309155, Applied Biosystems, Waltham, Massachusetts, United States of America) and results were normalized to β-actin. Primers used: […]
Relative gene expression was calculated using the 2^−ΔΔCT approach.

[3] = system: MC38 cell antigen-specific CD8+ T cells; assay: ELISPOT assay for IFN-γ-secreting CD8+ T cells
Description: MC38 cells were irradiated (40 Gy) and cultured overnight. CD8^+ T cells were isolated with EasySep mouse CD8+ positive selection kit (18953, STEMCELL Technologies, Vancouver, Canada) from draining lymph nodes of tumor-bearing mice on day 8 after treatment. 2×10^5 isolated CD8^+ T cells and 2×10^4 irradiated MC38 cells were plated onto 96-well PVDF-backed microplates coated with monoclonal antibody specific for mouse IFN-γ for 72 hours. Spots were developed by following the manufacturer's protocol (BD Biosciences, Franklin Lakes, New Jersey, United States of America).

[4] = system: CT26 (a colon cancer model); assay: CT26 tumor growth after IR and RA (ablative IR); details: IR and RA combination compared with single treatments
Description: (§2) 1×10^6 MC38, B16/F1, Renca or CT26 cells were subcutaneously implanted into flanks of mice. Tumors were irradiated using a Phillips IR250 orthovoltage X-ray generator (Phillips, Amsterdam, the Netherlands) operating at 250 kV 15 mA. Subcutaneous local tumors were irradiated by shielding bodies with a cylindrical lead cover with only flank tumors exposed for radiation. ATRA (400 μg/mice/day) was administered by oral gavage for 10 days. For the two-tumor model, 1×10^6 and 0.7×10^6 MC38 cells were subcutaneously implanted into the right and left flank of mice respectively. […] Tumors were measured along two diameters (length and width) and depth twice weekly and volumes were calculated as length×width×depth/2. For CD8 and CD4 T cell depletion experiments, 200 μg antibodies were injected i.p. on day 0, 2, 5 and 8 after radiation. Anti-CD11b antibody was injected i.p. every two days starting 1 day before radiation. Anti-PD-L1 antibody was administered i.p. on day 0, 3, and 7 after radiation at 200 μg/mouse. Anti-IFN-γ was administered i.p. at 500 μg/mouse every 7 days. Anti-NK1.1 antibody was administered via i.p. at 25 μg/mouse every 3 days for 3 doses. Anti-GM-CSF antibody was given by i.p. injection at 250 μg/mouse every 2 days. FTY720 was delivered via gavage at 20 μg per dose every day for 7 days. […]

[5] = system: B16 melanoma tumor model; assay: B16 melanoma tumor growth after IR and RA; details: IR and RA combination compared with single treatments
Description: as §2

[6] = system: LLC cells; assay: Tumor re-challenge of cured mice with LLC cells; details: mice cured by IR+RA vs naive mice, 1×10^6 LLC cells
Description: as §1

[7] = cells sorted from treated tumors
[8] = radiation and RA treatment compared to controls

CC1=C(/C=C/C(C)=C/C=C/C(C)=C/C(=O)O)C(C)(C)CCC1 [RA, all-trans retinoic acid]
growth of non-irradiated tumors [1]: slower growth rate | mRNA level of TNF-α in sorted CD11b+CD11c+ cells [2, 7]: increased | mRNA level of iNOS in sorted CD11b+CD11c+ cells [2, 7]: increased | transcription of CXCL9 in CD11c+ cells [2, 8]: increased significantly | transcription of CXCL10 in CD11c+ cells [2, 8]: increased significantly | transcription of CXCL11 in CD11c+ cells [2, 8]: increased significantly | tumor antigen-specific CD8+ T cell priming in draining lymph nodes (IFN-γ ELISPOT) ([3]; IR+RA compared to control or single treatments): significantly enhanced | priming of CD8+ T cells from DLN of non-irradiated tumors (IFN-γ production) ([3]; primary tumor received IR+RA combination treatment): augmented | CT26 tumor growth [4]: significant benefit | B16 tumor growth [5]: significant benefit | growth of LLC after re-challenge [6]: grew at the same rate
